Counter-ions that a name gives are not always drawn.
Columns and labels:
[1] = biological target: T1, caspase 1-GSDMD interactions (Mus musculus, UniProt Q9D8T2); assay: Caspase 1-GSDMD interaction and caspase 1 processing in BMDMs; type: cell-based
T1 construct: Immunoblots of casplp20 and GSDMD in BMDMs (I); endogenous in cells; host or cells: primary mouse BMDMs
T1 sequence (Q9D8T2 1-487): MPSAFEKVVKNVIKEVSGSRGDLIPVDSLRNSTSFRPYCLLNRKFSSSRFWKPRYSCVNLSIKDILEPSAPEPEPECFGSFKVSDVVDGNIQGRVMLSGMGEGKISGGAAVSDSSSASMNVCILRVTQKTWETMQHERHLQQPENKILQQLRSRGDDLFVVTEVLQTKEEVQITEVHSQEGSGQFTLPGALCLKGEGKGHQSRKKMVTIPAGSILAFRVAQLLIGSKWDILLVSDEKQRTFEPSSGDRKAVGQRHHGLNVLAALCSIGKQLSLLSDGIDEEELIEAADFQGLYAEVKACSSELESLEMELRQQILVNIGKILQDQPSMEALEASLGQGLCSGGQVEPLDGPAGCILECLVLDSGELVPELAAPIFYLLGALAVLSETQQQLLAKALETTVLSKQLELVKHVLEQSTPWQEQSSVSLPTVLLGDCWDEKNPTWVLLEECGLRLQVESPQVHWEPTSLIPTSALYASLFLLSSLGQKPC
Description: FIGS. 2A-J. Succination of GSDMD inhibits pyroptosis. Immunoblot of GSDMD in streptavidin pulldown from clicked lysates treated as indicated (A-B). Representative MS spectra of 2-monomethyl and 2-dimethylsuccination of GSDMD immunoprecipitated from fumarate treated BMDMs (C-D). Immunoblot of GSDMD in clicked lysates from transfected HEK293T. Cell death of HEK293T transfected as indicated (F-H). Immunoblots of casplp20 and GSDMD in BMDMs (I). Immunoblots of an in vitro binding assay of succinated and non-succinated GSDMD incubated with caspase 1 beads (J). A, B, F, J, […] representative images from three independent experiments. C, D, E, representative mass spec spectra from two independent experiments. H, I pooled data from three independent experiments. ***, P<0.001 (One-way anova). Error bars show means±SEM.
Primary BMDMs from WT or GsdmD^−/− mice were cultured in 12-well plates (1×10^6 cells per ml; 1 ml) or 10 cm dishes (2×10^6 cells per ml; 10 ml). HEK293T cells (2.5×10^5 cells per ml; 3 ml) were cultured in 6-well plates and transfected with FLAG-tagged GSDMD constructs where indicated. For cell lysate analysis cells were lysed directly in 1× Lamelli sample buffer. […] Samples were resolved by SDS-PAGE and stained using simply blue safe stain or transferred to nitrocellulose membranes and analyzed by immunoblot. […]

[2] = tested on: Bone marrow-derived macrophages (BMDMs); assay: LPS-nigericin inflammasome activation/pyroptosis in BMDMs; type: cell-based, mouse; conditions: for kinetic cell death: SYTOX orange, 0-6 hrs
Description: Human kidney cell line HEK293T was cultured in Dulbecco's modified Eagle's medium supplemented with 10% (v/v) fetal bovine serum, 100 U/ml penicillin and 100 µg/ml streptomycin. Human peripheral blood monocyte cell line, THP1 cells were cultured in RPMI-1640 medium supplemented with 10% (v/v) fetal bovine serum, 100 U/ml penicillin and 100 µg/ml streptomycin. For isolation of BMDMs, tibias and femurs were removed from wild type and GsdmD^−/− mice and bone marrow was flushed with complete DMEM-medium. Cells were plated in medium containing 20% (v/v) conditioned medium of L929 mouse fibroblasts cultured for 7 days at 37° C. in a humidified atmosphere of 5% C02. Medium was replaced every 3 days.
Conditioned media or serum was collected as indicated and IL-1β or TNF-α, were quantified by sandwich ELISA (R&D Systems).
Cells were plated, treated and incubated in phenol red free medium. Following treatment medium was collected and assessed for LDH release using the CytoTox96 non-radioactive cytotoxicity assay (Promega) as per manufacturer's instructions. Kinetic cell death assays were performed using SytoxOrange and the Biotek Cytation5.
For noncanonical inflammasome activation, cells were primed with […] Pam3CSK4 (Invivogen) for 2 h, followed by transfection of LPS (2 μg/ml) using Lipofectamine 2000 for 16 hours.
Primary BMDMs from WT or GsdmD^−/− mice were cultured in 12-well plates (1×10^6 cells per ml; 1 ml) or 10 cm dishes (2×10^6 cells per ml; 10 ml). HEK293T cells (2.5×10^5 cells per ml; 3 ml) were cultured in 6-well plates and transfected with FLAG-tagged GSDMD constructs where indicated. For cell lysate analysis cells were lysed directly in 1× Lamelli sample buffer. For native gel analysis cells were lysed in NP-40 lysis buffer (50 mM Tris-HCl, pH 7.4, containing 150 mM NaCl, 0.5% (w/v) IgePal, 50 mM NaF, 1 mM Na3VO4, 1 mM dithiothreitol, 1 mM phenylmethylsulfonyl fluoride and protease inhibitor cocktail. For immunoprecipitation of GSDMD, cells were treated as indicated and then collected in 500 μl RIPA buffer, followed by incubation for 15 min on ice. Lysates were incubated with GSDMD antibody and protein A-protein G-agarose was added to each sample, followed by incubation overnight at 4° C. Immunoprecipitates were collected by centrifugation and washed four times with 1 ml of RIPA buffer. Immunprecipates were eluted from beads using 1× sample buffer. Samples were resolved by SDS-PAGE and stained using simply blue safe stain or transferred to nitrocellulose membranes and analyzed by immunoblot. Immunoreactivity was visualized by the Odyssey Imaging System (LICOR Biosciences). For immunoblotting of IL-1β in cell supernatants, conditioned medium was collected and filtered using filter spin columns to reduce salt and remove abundant serum proteins. Filtrates were added to 4×SDS-PAGE sample buffer and resolved by SDS-PAGE for immunoblot analysis. GSDMD (ab209845) and GSDME antibodies were from abcam (ab215191). Caspase 1 antibody was from adipogen. Fumarase antibody was from cell signalling and anti-β-actin (AC-15; A1978) were from Sigma; anti-mouse IRDye™ 680 (926-68070) and anti-rabbit IRDye™ 800 (926-32211) were from LI-COR Biosciences.
Numerous studies have shown that cell metabolism impacts inflammatory responses. LPS activated macrophages switch from oxidative phosphorylation to aerobic glycolysis. Krebs cycle intermediates such as succinate and itaconate accumulate and moonlight as positive and negative regulators of inflammatory gene expression (3-8). To determine if Krebs cycle intermediates modulate pyroptosis, we tested their effect on inflammasome responses. Bone marrow-derived macrophages (BMDMs) were primed with LPS (2 hr) before being exposed to metabolites and then exposed to nigericin (Nig) and inflammasome activation/pyroptosis measured. The metabolites were added after LPS to avoid any impact on transcription. […] Fumarate impaired kinetic cell death (0-6 hrs) (FIG. 1E, FIG. 5A). […]

Compound: COC(=O)/C=C/C(=O)OC [Fumarate, Dimethyl fumarate]
- processing of caspase 1 ([1]; casp1 p20 immunoblot): not impaired
- caspase 1-GSDMD interactions ([1]; immunoblots): completely blocked
- GSDMD oligomerization ([2]; BMDMs pre-treated, LPS-Nig, native and reduced lysates): decreased
- LPS-Nig-induced release of LDH ([2]; WT BMDMs, LPS 2 hr, compound 1 hour (fumarate 25 μM), then nigericin): potently blocked
- LPS-Nig-induced release of IL-1β ([2]; WT BMDMs, LPS 2 hr, compound 1 hour (fumarate 25 μM), then nigericin, ELISA): potently blocked
- kinetic cell death ([2]; WT BMDMs, LPS-Nig): impaired
- kinetic cell death ([2]; WT BMDMs, LPS-Nig, listed as fumarate): inhibited cell death
- formation of GSDMD-N ([2]; WT BMDMs, LPS-Nig, immunoblot): blocked
- cell death when added after Nig treatment ([2]; WT BMDMs, fumarate 25 μM 15 minutes after each nigericin timepoint): impaired

From patent US20230233500A1, “Gasdermin D (GSDMD) Succination for the Treatment of Inflammatory Disease” (University of Massachusetts, priority 2020, published 2023)
